The record followed here is PubChem BioAssay AID248 (DTP/NCI, 2004).

The assay concerns L1210 leukemia ip in BDF1 mice, survival T/C. Put plainly: NCI In Vivo Anticancer Drug Screen. Data for tumor model L1210 Leukemia (intraperitoneal) in B6D2F1 (BDF1) mice. Conditions: endpoint: mean survival time, higher = longer survival. Summed up:
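Transplanted-tumor mice were given test agent; controls received vehicle only. Survival readings from the two groups were divided (treated over control).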

Setting [1] is: dose: 100.0 mg/kg/injection, schedule: Q01DX009 (ip), vehicle: Klucel (hydroxypropylcellulose) (HPC).
[2] abbreviates: dose: 100.0 mg/kg/injection, schedule: Q04DX003 (ip), vehicle: Klucel (hydroxypropylcellulose) (HPC).
[3] abbreviates: dose: 200.0 mg/kg/injection, schedule: Q01DX009 (ip), vehicle: Klucel (hydroxypropylcellulose) (HPC).
Where [4] appears, read: dose: 200.0 mg/kg/injection, schedule: Q04DX003 (ip), vehicle: Klucel (hydroxypropylcellulose) (HPC).
The mark [5] stands for this setting: dose: 400.0 mg/kg/injection, schedule: Q01DX009 (ip), vehicle: Klucel (hydroxypropylcellulose) (HPC).
[6] abbreviates: dose: 400.0 mg/kg/injection, schedule: Q04DX003 (ip), vehicle: Klucel (hydroxypropylcellulose) (HPC).
The mark [7] stands for this setting: dose: 25.0 mg/kg/injection, schedule: Q01DX009 (ip), vehicle: saline with Tween-80.
Setting [8] is: dose: 50.0 mg/kg/injection, schedule: Q04DX003 (ip), vehicle: saline with Tween-80.
[9] abbreviates: dose: 100.0 mg/kg/injection, schedule: Q01DX001 (ip), vehicle: saline.
Setting [10] is: dose: 200.0 mg/kg/injection, schedule: Q01DX001 (ip), vehicle: saline.
[11] abbreviates: dose: 400.0 mg/kg/injection, schedule: Q01DX001 (ip), vehicle: saline.
Setting [12] is: dose: 100.0 mg/kg/injection, schedule: Q01DX009 (ip), vehicle: saline with Tween-80.
Setting [13] is: dose: 100.0 mg/kg/injection, schedule: Q04DX003 (ip), vehicle: saline with Tween-80.
Setting [14] is: dose: 200.0 mg/kg/injection, schedule: Q04DX003 (ip), vehicle: saline with Tween-80.
[15] abbreviates: dose: 400.0 mg/kg/injection, schedule: Q04DX003 (ip), vehicle: saline with Tween-80.

Several values for one entry are separate records, joined by “and”; a condition that tells them apart may be missing. Identical values can stand only once. Inconclusive results and toxic doses are left out.

Regarding `CCCCCCCCOc1ccc(C(=O)c2ccccc2)c(O)c1`, the T/C is, setting by setting: under setting [1], 100 % of control; under setting [2], 94 % of control; under setting [3], 101 % of control; under setting [4], 96 % of control; under setting [5], 94 % of control; under setting [6], 94 % of control.

`CCOC(O)(C(F)(F)F)C(F)(F)F`: the T/C by setting is: (dose: 12.5 mg/kg/injection, schedule: Q01DX009 (ip), vehicle: saline with Tween-80) 96 % of control; (dose: 12.5 mg/kg/injection, schedule: Q04DX003 (ip), vehicle: saline with Tween-80) 95 % of control; under setting [7], 105 % of control; under setting [8], 97 % of control; under setting [9], 98 % of control.

As to `COc1cc(/C=N/N=C(N)N)cc(I)c1O`, the T/C is 100 % of control (dose: 15.0 mg/kg/injection, schedule: Q01DX Z (ip), vehicle: carboxymethylcellulose (CMC)); 106 % of control (dose: 30.0 mg/kg/injection, schedule: Q01DX Z (ip), vehicle: carboxymethylcellulose (CMC)); 102 % of control (dose: 30.0 mg/kg/injection, schedule: Q01DX Z (oral), vehicle: carboxymethylcellulose (CMC)); 112 % of control (dose: 60.0 mg/kg/injection, schedule: Q01DX Z (ip), vehicle: carboxymethylcellulose (CMC)); 95 % of control (dose: 60.0 mg/kg/injection, schedule: Q01DX Z (oral), vehicle: carboxymethylcellulose (CMC)); 98 % of control (dose: 120.0 mg/kg/injection, schedule: Q01DX Z (oral), vehicle: carboxymethylcellulose (CMC)).

With `Clc1ncnc2c1ncn2C1CCCCO1` (centres undefined), the T/C reads like this: (dose: 31.0 mg/kg/injection, schedule: Q01DX Z (ip), vehicle: other) 101 % of control; (dose: 62.0 mg/kg/injection, schedule: Q01DX Z (ip), vehicle: other) 103 % of control; under setting [9], 91 % of control; (dose: 100.0 mg/kg/injection, schedule: Q01DX009 (ip), vehicle: saline sonified) 110 % of control; (dose: 175.0 mg/kg/injection, schedule: Q01DX015 (ip), vehicle: saline) 113 % of control; under setting [10], 98 % of control. For the same compound, the T/C by setting is: (dose: 200.0 mg/kg/injection, schedule: Q01DX009 (ip), vehicle: saline sonified) 118 % of control; (dose: 265.0 mg/kg/injection, schedule: Q01DX015 (ip), vehicle: saline) 123 % of control; under setting [11], 102 % of control; (dose: 400.0 mg/kg/injection, schedule: Q01DX009 (ip), vehicle: saline sonified) 150 % of control; (dose: 400.0 mg/kg/injection, schedule: Q01DX015 (ip), vehicle: saline) 123 % of control.

As for `CCN1CCCC(Nc2nc(C(Cl)(Cl)Cl)nc3cc(Cl)ccc23)C1` (centres undefined), the T/C was 104 % of control under setting [12], 87 % of control under setting [13], 89 % of control under setting [14] and 88 % of control under setting [15].

On to `COc1ccc2c(c1)CCCCC2=O`, for which the T/C is 105 % of control (dose: 50.0 mg/kg/injection, schedule: Q01DX001 (ip), vehicle: carboxymethylcellulose (CMC)); 102 % of control (dose: 100.0 mg/kg/injection, schedule: Q01DX001 (ip), vehicle: carboxymethylcellulose (CMC)); 100 % of control (dose: 200.0 mg/kg/injection, schedule: Q01DX001 (ip), vehicle: carboxymethylcellulose (CMC)); 102 % of control (dose: 400.0 mg/kg/injection, schedule: Q01DX001 (ip), vehicle: carboxymethylcellulose (CMC)).

For `CCC(=O)c1ccc(NC(=S)Nc2ccccc2)cc1`, the T/C (dose: 5.0 mg/kg/injection, schedule: Q01DX009 (ip), vehicle: saline with Tween-80) is 104 % of control; the T/C (dose: 10.0 mg/kg/injection, schedule: Q01DX009 (ip), vehicle: saline with Tween-80) is 97 % of control; the T/C (dose: 20.0 mg/kg/injection, schedule: Q01DX009 (ip), vehicle: saline with Tween-80) was 101 % of control and 86 % of control; the T/C (dose: 40.0 mg/kg/injection, schedule: Q01DX009 (ip), vehicle: saline with Tween-80) is 95 % of control and 89 % of control; the T/C (dose: 80.0 mg/kg/injection, schedule: Q01DX009 (ip), vehicle: saline with Tween-80) was 86 % of control and 88 % of control; the T/C (dose: 100.0 mg/kg/injection, schedule: Q04DX003 (ip), vehicle: saline) was 110 % of control. Moreover, the T/C (dose: 200.0 mg/kg/injection, schedule: Q04DX003 (ip), vehicle: saline) was 100 % of control; the T/C (dose: 320.0 mg/kg/injection, schedule: Q01DX009 (ip), vehicle: saline with Tween-80) is 87 % of control; the T/C (dose: 400.0 mg/kg/injection, schedule: Q04DX003 (ip), vehicle: saline) was 98 % of control.

For `CCCCCCCC(O)CCC` (centres undefined), the T/C under setting [1] is 94 % of control; the T/C under setting [2] was 100 % of control; the T/C under setting [3] was 104 % of control; the T/C under setting [4] was 97 % of control; the T/C under setting [6] was 92 % of control.

On to `CCOC(=O)C(NC(=O)NC)C(=O)OCC`, for which the T/C by setting is: under setting [1], 98 % of control; under setting [2], 102 % of control; under setting [3], 93 % of control; under setting [4], 98 % of control; under setting [5], 102 % of control; under setting [6], 96 % of control.

Turning to `O=C(NCCN1CC1)C(=O)NCCN1CC1`, the T/C runs as follows: (dose: 1.7 mg/kg/injection, schedule: Q04DX003 (ip), vehicle: Klucel (hydroxypropylcellulose) (HPC)) 173 % of control; (dose: 2.6 mg/kg/injection, schedule: Q04DX003 (ip), vehicle: Klucel (hydroxypropylcellulose) (HPC)) 153 % of control and 186 % of control; (dose: 3.12 mg/kg/injection, schedule: Q04DX003 (ip), vehicle: Klucel (hydroxypropylcellulose) (HPC)) 187 % of control; (dose: 3.12 mg/kg/injection, schedule: Q04DX003 (ip), vehicle: saline with Tween-80) 179 % of control; (dose: 4.0 mg/kg/injection, schedule: Q04DX003 (ip), vehicle: Klucel (hydroxypropylcellulose) (HPC)) 207 % of control; (dose: 6.0 mg/kg/injection, schedule: Q04DX003 (ip), vehicle: Klucel (hydroxypropylcellulose) (HPC)) 95 % of control. Further, the T/C was 258 % of control (dose: 6.25 mg/kg/injection, schedule: Q04DX003 (ip), vehicle: Klucel (hydroxypropylcellulose) (HPC)) and 122 % of control (dose: 12.5 mg/kg/injection, schedule: Q04DX003 (ip), vehicle: Klucel (hydroxypropylcellulose) (HPC)).

`CCCCC1(C)CCC(=O)O1` (centres undefined): the T/C (dose: 66.0 mg/kg/injection, schedule: Q01DX001 (ip), vehicle: Klucel (hydroxypropylcellulose) (HPC)) was 101 % of control; the T/C (dose: 100.0 mg/kg/injection, schedule: Q01DX001 (ip), vehicle: Klucel (hydroxypropylcellulose) (HPC)) was 95 % of control; the T/C (dose: 150.0 mg/kg/injection, schedule: Q01DX001 (ip), vehicle: Klucel (hydroxypropylcellulose) (HPC)) is 96 % of control; the T/C under setting [10] is 113 % of control; the T/C under setting [11] was 91 % of control.

Turning to `O=C(CCl)N(O)c1ccccc1OCc1ccccc1`, the T/C was 91 % of control (dose: 100.0 mg/kg/injection, schedule: Q04DX003 (ip), vehicle: carboxymethylcellulose (CMC)) and 102 % of control (dose: 200.0 mg/kg/injection, schedule: Q04DX003 (ip), vehicle: carboxymethylcellulose (CMC)).

Consider `CCC(C(O)c1ccccc1)C(O)(C(F)(F)F)C(F)(F)F` (centres undefined), for which the T/C is 100 % of control (dose: 75.0 mg/kg/injection, schedule: Q01DX009 (ip), vehicle: saline with Tween-80); 106 % of control (dose: 150.0 mg/kg/injection, schedule: Q01DX009 (ip), vehicle: saline with Tween-80); 103 % of control (dose: 300.0 mg/kg/injection, schedule: Q01DX009 (ip), vehicle: saline with Tween-80).

Turning to `CCCCCCCCCCCCCCCCOc1ccc(S(=O)(=O)N(Cc2ccccc2)Cc2ccccc2)cc1[N+](=O)[O-]`, the T/C reads like this: under setting [13], 86 % of control; under setting [14], 95 % of control; under setting [15], 90 % of control.

For the compound `CC(C)(C)OC(=O)NC(C(=O)O)C1=CCC=CC1` (centres undefined), the T/C under setting [2] is 94 % of control and the T/C under setting [6] was 102 % of control.

As to `Cc1ccc(C)c(CCN)c1`, the T/C is 103 % of control under setting [7]; 98 % of control (dose: 50.0 mg/kg/injection, schedule: Q01DX009 (ip), vehicle: saline with Tween-80); 100 % of control under setting [8]; 94 % of control under setting [12]; 92 % of control under setting [13].
